Assay [1] has as its target T1, Rac GTPase-activating protein 1 (Homo sapiens, UniProt Q9H0H5).
T1 sequence (Q9H0H5 whole entry): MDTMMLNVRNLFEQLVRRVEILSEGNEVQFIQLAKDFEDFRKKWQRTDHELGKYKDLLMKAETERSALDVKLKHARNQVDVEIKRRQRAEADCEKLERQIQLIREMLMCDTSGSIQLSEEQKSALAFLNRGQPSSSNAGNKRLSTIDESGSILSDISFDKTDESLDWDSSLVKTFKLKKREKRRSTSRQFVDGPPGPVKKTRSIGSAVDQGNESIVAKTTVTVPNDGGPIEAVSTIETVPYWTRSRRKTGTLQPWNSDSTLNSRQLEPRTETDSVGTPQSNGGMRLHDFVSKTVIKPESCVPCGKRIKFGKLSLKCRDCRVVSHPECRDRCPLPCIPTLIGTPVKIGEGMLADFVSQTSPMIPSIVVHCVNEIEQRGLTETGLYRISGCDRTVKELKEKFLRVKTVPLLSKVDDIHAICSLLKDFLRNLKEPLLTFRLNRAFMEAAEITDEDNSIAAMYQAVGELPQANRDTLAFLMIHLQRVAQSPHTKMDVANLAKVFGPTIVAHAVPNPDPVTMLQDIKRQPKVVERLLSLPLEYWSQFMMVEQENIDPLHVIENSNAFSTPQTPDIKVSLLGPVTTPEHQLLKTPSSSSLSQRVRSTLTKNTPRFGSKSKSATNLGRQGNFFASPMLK
Nature of the assay: blockers of MgcRacGAP-driven Rac1 GTP hydrolysis – biochemical, ADP Hunter fluorescence, primary and confirmatory, confirmation (AID 624330). It counts as functional.

The target in assay [2] is T2, DNA repair protein RAD52 homolog (Homo sapiens, UniProt P43351).
T2 sequence (P43351 whole entry): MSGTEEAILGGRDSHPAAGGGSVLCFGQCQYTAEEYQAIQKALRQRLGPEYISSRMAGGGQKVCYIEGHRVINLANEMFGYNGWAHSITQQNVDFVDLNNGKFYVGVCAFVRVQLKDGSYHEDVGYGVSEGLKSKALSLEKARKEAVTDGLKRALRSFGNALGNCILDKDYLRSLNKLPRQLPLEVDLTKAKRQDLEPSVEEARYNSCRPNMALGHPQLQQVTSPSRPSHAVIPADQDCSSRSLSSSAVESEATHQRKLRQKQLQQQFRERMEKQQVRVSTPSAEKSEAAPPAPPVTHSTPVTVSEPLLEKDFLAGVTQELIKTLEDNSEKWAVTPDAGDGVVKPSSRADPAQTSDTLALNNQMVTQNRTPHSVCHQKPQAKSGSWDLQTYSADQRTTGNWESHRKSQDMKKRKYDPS
It is filed as functional, biochemical.

Assay [3] in a line: A549 cell cytotoxicity, dose response, cytotoxicity control, plate reader, cherry-pick, antagonist series (AID 743412). It counts as functional, cell-based.
The nature of assay [4]: microbe, parasite or virus in culture. It is filed as functional. The conditions noted are these: Mycobacterium tuberculosis.
The nature of assay [5]: general mammalian cell viability loss – activator set, cherry-pick, cytotoxicity control for miR-122 modulator project, dose response (AID 720690).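 Note: HEK293T human cells scored for general mammalian cytotoxicity.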 It is filed as functional, cell-based.
Another assay deals with Streptococcus. Kind of assay: GAS UMAA2166 growth inhibition – luminescence, BacTiterGlo, counter-screen for streptokinase expression inhibitor project, dose response (AID 1915).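 Note: potency for reduction of bacterial viability or growth.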 It is filed as functional, organism-based. On the technique in general: A counterscreen serves to expose hits that act by an unwanted route or on another target.
A short description of assay [6]: Trypanosoma cruzi growth suppression in host cells – NIH3T3 host cells, beta-gal luminescence, confirmation (AID 2044).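 Note: intracellular parasites grown in NIH/3T3 mouse fibroblasts as host cells; luminescent beta-galactosidase reporter signal from transgenic T. cruzi replicating inside host cells; inhibitors lower the luminescence signal.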 It counts as functional, cell-based.
The nature of assay [7]: reduction of Shn3 3'UTR-driven luciferase in osteoblasts – cell-based, Clone20 osteoblasts, firefly luciferase, cherry-picked, dose response (AID 624132).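 Note: firefly luciferase luminescence from reporter carrying the Shn3 3'UTR in osteoblasts.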 It counts as functional.
Assay [8] is described as follows: loss of viability in HepG2 cells – cell-based, CellTiter-Glo, cherry-picked, cytotoxicity control for Shn3 inhibitor project, dose response (AID 624134). It counts as functional. (In general: Cellular ATP, detected with luciferase, serves as a proxy for viable cell number.)
The nature of assay [9]: activation of miR-122 Renilla sensor silencing – cell-based, Huh7 psiCHECK-miR122, Renilla luciferase, cherry-picked, dose response (AID 651956).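 Note: huh7 hepatoma cells stably carrying a psiCHECK-2 miR-122 sensor plasmid; renilla luciferase signal reporting endogenous miR-122 activity after 48 h compound exposure.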 It is filed as functional.
Assay [10] has as its target Heat shock protein HSP 90-alpha (Homo sapiens, UniProt P07900). It counts as functional, organism-based.
The test system of assay [11] is Streptococcus sp. 'group A'. Nature of the assay: Streptococcus pyogenes SK(-)GAS viability under kanamycin – luminescence, BacTiterGlo, confirmation, counter-screen for streptokinase expression inhibitor project, dose response (AID 1900). It counts as functional, organism-based.
Assay [12] is described as follows: non-specific 3'UTR reporter inhibition in Clone20-Shn3RL – cell-based, Renilla luciferase, cherry-picked, counter-screen for Shn3 inhibitor project, dose response (AID 624133). It is filed as functional.
The nature of assay [13]: cells. It is filed as functional, cell-based.
Assay [14] in a line: cells. It is filed as functional, cell-based. The source holds these as a separate data set.
Assay [15] is described as follows: NIH3T3 cell viability loss – ATP luminescence, mouse fibroblasts, counter-screen, dose response (AID 2010).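 Note: cells exposed to compound for about 90 hours before reading.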 It counts as functional, cell-based.
Assay [16] has as its target T3, Heat shock factor protein 1 (Mus musculus, UniProt P38532).
T3 sequence (P38532 whole entry): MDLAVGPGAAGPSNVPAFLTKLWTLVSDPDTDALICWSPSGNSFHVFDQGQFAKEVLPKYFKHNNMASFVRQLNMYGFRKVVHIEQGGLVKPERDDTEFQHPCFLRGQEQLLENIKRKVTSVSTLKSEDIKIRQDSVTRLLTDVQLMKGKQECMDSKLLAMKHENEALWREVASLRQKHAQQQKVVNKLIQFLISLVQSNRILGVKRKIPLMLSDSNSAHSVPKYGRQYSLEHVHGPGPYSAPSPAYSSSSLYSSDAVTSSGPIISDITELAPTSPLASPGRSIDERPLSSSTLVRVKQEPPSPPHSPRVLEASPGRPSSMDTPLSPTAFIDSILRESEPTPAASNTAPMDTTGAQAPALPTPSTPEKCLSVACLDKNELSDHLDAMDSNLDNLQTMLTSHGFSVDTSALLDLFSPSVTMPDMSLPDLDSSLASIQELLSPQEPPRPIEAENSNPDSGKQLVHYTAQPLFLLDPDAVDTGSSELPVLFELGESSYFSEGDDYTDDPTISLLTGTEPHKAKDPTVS
Nature of the assay: decrease of HSF1-responsive luciferase luminescence – cell-based, NIH3T3, dose retest, confirmation (AID 2382).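 Note: NIH3T3 fibroblasts with HSF1-driven luciferase reporter stressed by proteasome inhibitor MG132; luminescence from HSF1-driven luciferase expression after 8 hours of MG132 stress.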 It counts as functional.

Another assay has as its target Protein Wnt-3a (Mus musculus, UniProt P27467). Kind of assay: antagonism of Wnt3a pathway luciferase reporter – Wnt-LIGHT cells, luminescence, selectivity assay for Gli-SUFU antagonist project, dose response (AID 651570).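 Note: Wnt-LIGHT reporter cells stimulated with conditioned medium from Wnt3a-producing cells.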 It counts as functional. The conditions noted are these: read-out: IC50_Mean. In general terms: A reporter such as luciferase makes a cellular process visible.

The nature of assay [17]: viability loss in CEM21 cells – cell-based, CellTiter-Glo luminescence, cherry-picked, cytotoxicity control for viral fusion inhibitor project, dose response (AID 652042).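 Note: potency for signal decrease meaning cytotoxicity.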 It counts as functional.
In assay [18] the target is Glucose-6-phosphate 1-dehydrogenase (Homo sapiens, UniProt P11413). Kind of assay: inhibition of Homo sapiens G6PD, dose series – biochemical, fluorescence, selectivity assay for P. falciparum G6PD inhibitor project, dose response (AID 504792). It is filed as functional.
Chain of Glucose-6-phosphate 1-dehydrogenase (P11413 whole entry, the tested form may be a part): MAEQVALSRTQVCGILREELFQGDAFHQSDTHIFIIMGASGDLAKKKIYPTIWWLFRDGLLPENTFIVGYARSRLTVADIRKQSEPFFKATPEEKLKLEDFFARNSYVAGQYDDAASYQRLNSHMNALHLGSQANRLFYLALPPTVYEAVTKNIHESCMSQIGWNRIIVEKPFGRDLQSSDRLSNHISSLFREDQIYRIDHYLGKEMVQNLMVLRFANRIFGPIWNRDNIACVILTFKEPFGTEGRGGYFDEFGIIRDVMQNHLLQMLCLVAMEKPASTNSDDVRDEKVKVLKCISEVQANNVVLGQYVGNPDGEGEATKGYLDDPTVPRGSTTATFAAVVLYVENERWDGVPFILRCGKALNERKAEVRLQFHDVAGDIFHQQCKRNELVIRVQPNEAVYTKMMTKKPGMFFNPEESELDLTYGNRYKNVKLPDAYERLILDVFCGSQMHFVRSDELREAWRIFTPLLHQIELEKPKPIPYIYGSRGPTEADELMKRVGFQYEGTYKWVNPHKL
Assay [19] in a line: blockers of HIV-1 envelope-mediated cell-cell fusion – cherry-pick, dose response (AID 652057). It is filed as functional, cell-based.
Assay [20] can be described thus: blockers of HIV-1 ZM109 envelope-driven cell-cell fusion – HeLa effector, CEM target cells, luciferase, cherry-pick, dose response (AID 652058).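 Note: luciferase signal from HIV-1 Env mediated cell-cell fusion of effector and target cells.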 It counts as functional, cell-based.
Assay [21] can be described thus: off-target signal loss in HeLa-CEM21 co-culture – HeLa F-luc CTL cells, cherry-picked, counter-screen for HIV-1 Env fusion inhibitor project, dose response (AID 652040).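 Note: potency for signal decrease marking cytotoxic or nonspecific inhibition.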 It is filed as functional, cell-based.
A short description of assay [22]: HIV-1 AD8 envelope cell-cell fusion blockers – cherry-pick, dose response (AID 652062).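 Note: luciferase signal from cell-cell fusion driven by HIV-1 clade B AD8 Env; potency is for inhibitors of fusion seen as a drop in luminescence.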 It counts as functional, cell-based.

Calls of active or inactive are those of the source.

The values that follow come from ChEMBL document CHEMBL1201862, “PubChem BioAssay data set” (2004).

Chain of Protein Wnt-3a (P27467 whole entry): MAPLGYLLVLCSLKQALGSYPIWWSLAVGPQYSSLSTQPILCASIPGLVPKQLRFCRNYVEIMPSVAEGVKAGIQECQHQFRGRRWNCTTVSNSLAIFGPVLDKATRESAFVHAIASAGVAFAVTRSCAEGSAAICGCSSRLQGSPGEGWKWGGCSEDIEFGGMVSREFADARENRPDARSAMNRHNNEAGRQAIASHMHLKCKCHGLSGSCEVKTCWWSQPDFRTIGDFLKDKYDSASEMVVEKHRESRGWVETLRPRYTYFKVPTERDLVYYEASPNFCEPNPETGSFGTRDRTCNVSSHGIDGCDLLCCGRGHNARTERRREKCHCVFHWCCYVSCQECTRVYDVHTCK

Usually AC50 stands for the midpoint of the concentration-response curve, whichever way the signal moves. `O=C(CN1CCCCC1)Nc1ccc(N2CCCCCC2)cc1`: the IC50 in assay [1] was 126 µM (active). Further, the AC50 in assay [2] was 22.8 µM (active).
As for `Cc1ccc(-c2csc(NC(=O)C[n+]3cc(-c4ccccc4)n4c3CCC4)n2)cc1`, in assay [2], the AC50 is 21.1 µM (active).
Take `Cc1ccc(-n2cc(CN(C)Cc3nccn3C)c(-c3cccc(C)c3)n2)cc1`: the AC50 in assay [3] was > 52 µM (inactive). Besides, the CC50 in [4] is > 40 µM (active).
Broadly, the EC50 is the concentration that produces a half-maximal response. On to `CC(=O)NC(c1ccc(C)cc1)c1cc(Cl)c2cccnc2c1O` (centres undefined), for which the AC50 in assay [5] was 2.8 µM (active); in assay [7], 2.12 µM (active); in [8], 4.67 µM (active); in assay [9], 37.4 µM (active); in assay [10] it was 3.52 µM (active); in [12], 3.29 µM (active). The EC50 in the assay on Streptococcus is 6.97 µM (active); in [6], 0.655 µM (active); in assay [11] it was 1.38 µM (active); in the assay “cells [13]”, 14.7 µM (active); in “cells [14]” it was > 350 µM (not active); in assay [15], 0.763 µM (active). Besides, in [16], the EC50 was 0.911 µM (active).
Regarding `Cc1cc(NC(=O)CSc2nc3c4ccccc4nc-3c(O)n2-c2ccccc2F)no1`, the IC50 on Protein Wnt-3a is 6.29 µM (active).
On the same count and under the same terms, next, `c1ccc(C[n+]2cccc(-c3ccccc3)c2)cc1`: 44.8 µM (inactive); `Cc1ccc(NC(=O)/C=C/c2ccco2)cc1S(=O)(=O)N1CCCCCC1`: 17.7 µM (active).
In the case of `COc1cc(-c2cc(OC)c(O)c(OC)c2)cc(OC)c1O`, the IC50 in assay [1] was 88.4 µM (active); in assay [18], > 80 µM (inactive). The concentration at half-maximal activity (AC50) in [17] is 27.4 µM (active).
On to `O=C1[C@H](Cc2ccccc2)NCCCC[C@H](c2ccco2)N1Cc1ccccc1`, for which the AC50 in assay [19] was 4.38 µM (active); in assay [17], 39.9 µM (active); in assay [20], 10.4 µM (active); in [21] it was 7.61 µM (active); in [22], 35.3 µM (active).
